US8232401B2 (Japan Tobacco Inc., priority 2002, dated 2012)

Molecular target: T1, HIV integrase (Human immunodeficiency virus type 1 group M subtype B, UniProt P12497, F1332H)
T1 construct: HIV integrase full length gene; made in house; host or cells: Escherichia coli BL21(DE3)
Assay: Determination of enzyme (HIV integrase) inhibitory activity (strand transfer, microtiter plate, absorbance at 450 nm)
Format: biochemical, HIV (Human Immunodeficiency Virus (type 1))
Settings: recombinant HIV integrase (F185H) expressed in E. coli; donor DNA on streptavidin plate, digoxigenin target DNA; 37° C.

Compound | IC50 [nM]
CCOc1cc(Cc2cccc(Cl)c2F)cc2c(=O)c(C(=O)O)cn([C@@H](CC)CO)c12 [Example 4-21, (S)-6-(3-Chloro-2-fluorobenzyl)-8-ethoxy-1-[1-(hydroxymethyl)propyl]-4-oxo-1,4-dihydroquinoline-3-carboxylic acid] | 4.5
O=C(O)c1cn(CCn2ccnc2)c2ccc(Cc3cccc(Cl)c3Cl)cc2c1=O [Example 1-4, 6-(2,3-Dichlorobenzyl)-1-(2-imidazol-1-ylethyl)-4-oxo-1,4-dihydroquinoline-3-carboxylic acid] | 240
CCOc1cc(Cc2cccc(Cl)c2F)cc2c(=O)c(C(=O)O)cn([C@H](CO)C(C)(C)C)c12 [Example 4-37, (S)-6-(3-Chloro-2-fluorobenzyl)-8-ethoxy-1-[2,2-dimethyl-1-(hydroxymethyl)propyl]-4-oxo-1,4-dihydroquinoline-3-carboxylic acid] | 1.9
O=C(O)c1cn(CCO)c2ccc(Cc3cc(F)ccc3Cl)cc2c1=O [Example 4-6, 6-(2-Chloro-5-fluorobenzyl)-1-(2-hydroxyethyl)-4-oxo-1,4-dihydroquinoline-3-carboxylic acid] | 460
CNC(=O)Cn1cc(C(=O)O)c(=O)c2cc(Cc3cccc(Cl)c3Cl)ccc21 [Example 1-6, 6-(2,3-Dichlorobenzyl)-1-methylcarbamoylmethyl-4-oxo-1,4-dihydroquinoline-3-carboxylic acid] | 140
O=C(O)c1cn(Cc2ccc(Cl)c(Cl)c2)c2ccc(Cc3cccc(Cl)c3Cl)cc2c1=O [Example 1-23, 6-(2,3-dichlorobenzyl)-1-(3,4-dichlorobenzyl)-4-oxo-1,4-dihydroquinoline-3-carboxylic acid] | 190
CC(C)(C)NS(=O)(=O)Cn1cc(C(=O)O)c(=O)c2cc(Cc3cccc(Cl)c3Cl)ccc21 [Example 1-70, 1-tert-Butylsulfamoylmethyl-6-(2,3-dichlorobenzyl)-4-oxo-1,4-dihydroquinoline-3-carboxylic acid] | 82
CC[C@@H](CO)n1cc(C(=O)O)c(=O)c2cc(Cc3cccc(Cl)c3F)c(OC(C)C)cc21 [Example 3-72, (S)-6-(3-Chloro-2-fluorobenzyl)-1-[1-(hydroxymethyl)propyl]-7-isopropyloxy-4-oxo-1,4-dihydroquinoline-3-carboxylic acid] | 3.8
CNS(=O)(=O)Cn1cc(C(=O)O)c(=O)c2cc(Cc3c(F)cccc3Cl)ccc21 [Example 1-76, 6-(2-Chloro-6-fluorobenzyl)-1-methylsulfamoylmethyl-4-oxo-1,4-dihydroquinoline-3-carboxylic acid] | 28
CC(C)Oc1cc2c(cc1Cc1cccc(Cl)c1F)c(=O)c(C(=O)O)cn2[C@H](CO)C(C)C [Example 4-19, (S)-6-(3-Chloro-2-fluorobenzyl)-1-(1-hydroxymethyl-2-methylpropyl)-7-isopropyloxy-4-oxo-1,4-dihydroquinoline-3-carboxylic acid] | 2.9
CC(C)Cn1cc(C(=O)O)c(=O)c2cc(Cc3cccc(Cl)c3Cl)ccc21 [Example 1-18, 6-(2,3-Dichlorobenzyl)-1-isobutyl-4-oxo-1,4-dihydroquinoline-3-carboxylic acid] | 120
CC(O)Cn1cc(C(=O)O)c(=O)c2cc(Cc3cccc(Cl)c3Cl)ccc21 (stereo not drawn) [Example 1-30, 6-(2,3-Dichlorobenzyl)-1-(2-hydroxypropyl)-4-oxo-1,4-dihydroquinoline-3-carboxylic acid] | 140
O=C(O)c1cn(CCO)c2cc(O)c(Cc3cccc(Cl)c3Cl)cc2c1=O [Example 3-6, 6-(2,3-Dichlorobenzyl)-7-hydroxy-1-(2-hydroxyethyl)-4-oxo-1,4-dihydroquinoline-3-carboxylic acid] | 11
O=C(O)c1cn(CCO)c2ccc(Cc3cccc(Cl)c3Cl)c(O)c2c1=O [Example 3-5, 6-(2,3-Dichlorobenzyl)-5-hydroxy-1-(2-hydroxyethyl)-4-oxo-1,4-dihydroquinoline-3-carboxylic acid] | 24
COc1cc(Cc2c(F)ccc(Cl)c2F)cc2c(=O)c(C(=O)O)cn([C@@H](C)CO)c12 [Example 3-57, (S)-6-(3-Chloro-2,6-difluorobenzyl)-1-(2-hydroxy-1-methylethyl)-8-methoxy-4-oxo-1,4-dihydroquinoline-3-carboxylic acid] | 15
CCCOc1cc(Cc2cccc(Cl)c2F)cc2c(=O)c(C(=O)O)cn(CCO)c12 [Example 3-58, 6-(3-Chloro-2-fluorobenzyl)-1-(2-hydroxyethyl)-4-oxo-8-propyloxy-1,4-dihydroquinoline-3-carboxylic acid] | 8
NC(=O)CCn1cc(C(=O)O)c(=O)c2cc(Cc3cccc(Cl)c3Cl)ccc21 [Example 1-13, 1-(2-Carbamoylethyl)-6-(2,3-dichlorobenzyl)-4-oxo-1,4-dihydroquinoline-3-carboxylic acid] | 140
O=C(O)c1cn(CCO)c2c(NCCO)cc(Cc3cccc(Cl)c3F)cc2c1=O [Example 3-78, 6-(3-Chloro-2-fluorobenzyl)-1-(2-hydroxyethyl)-8-(2-hydroxyethylamino)-4-oxo-1,4-dihydroquinoline-3-carboxylic acid] | 16

Compound | IC50 [nM]
O=C(O)c1cn(CC(O)CO)c2ccc(Cc3cccc(Cl)c3Cl)cc2c1=O (stereo not drawn) [Example 1-74, 6-(2,3-Dichlorobenzyl)-1-(2,3-Dihydroxypropyl)-4-oxo-1,4-dihydroquinoline-3-carboxylic acid] | 98
O=C(O)c1cn(CCO)c2cc(N3CCCC3)c(Cc3cccc(Cl)c3F)cc2c1=O [Example 3-66, 6-(3-Chloro-2-fluorobenzyl)-1-(2-hydroxyethyl)-4-oxo-7-pyrrolidin-1-yl-1,4-dihydroquinoline-3-carboxylic acid] | 48
O=C(O)c1cn(CCO)c2ccc(Cc3cc(O)ccc3Cl)cc2c1=O [Example 4-11, 6-(2-Chloro-5-hydroxybenzyl)-1-(2-hydroxyethyl)-4-oxo-1,4-dihydroquinoline-3-carboxylic acid] | 220
O=C(O)c1cn(CCCc2ccccc2)c2ccc(Cc3cccc(Cl)c3Cl)cc2c1=O [Example 1-17, 6-(2,3-Dichlorobenzyl)-1-(3-phenylpropyl)-4-oxo-1,4-dihydroquinoline-3-carboxylic acid] | 84
CC(C)Oc1cc(Cc2cccc(Cl)c2F)cc2c(=O)c(C(=O)O)cn([C@H](CO)C(C)C)c12 [Example 4-24, (S)-6-(3-Chloro-2-fluorobenzyl)-1-(1-hydroxymethyl-2-methylpropyl)-8-isopropyloxy-4-oxo-1,4-dihydroquinoline-3-carboxylic acid] | 2.5
O=C(O)c1cn(C(CO)CO)c2ccc(Cc3cccc(Cl)c3F)cc2c1=O [Example 3-26, 6-(3-Chloro-2-fluorobenzyl)-1-[2-hydroxy-1-(hydroxymethyl)ethyl]-4-oxo-1,4-dihydroquinoline-3-carboxylic acid] | 11
CCC[C@@H](CO)n1cc(C(=O)O)c(=O)c2cc(Cc3cccc(Cl)c3F)cc(OC)c21 [Example 4-49, (S)-6-(3-Chloro-2-fluorobenzyl)-1-[1-(hydroxymethyl)butyl]-8-methoxy-4-oxo-1,4-dihydroquinoline-3-carboxylic acid] | 5.7
CC(C)Oc1cc2c(cc1Cc1cccc(Cl)c1F)c(=O)c(C(=O)O)cn2[C@H](CO)C1CCCCC1 [Example 4-40, (S)-6-(3-Chloro-2-fluorobenzyl)-1-(1-cyclohexyl-2-hydroxyethyl)-7-isopropyloxy-4-oxo-1,4-dihydroquinoline-3-carboxylic acid] | 4.3
CNc1cc2c(cc1Cc1cccc(Cl)c1F)c(=O)c(C(=O)O)cn2CCO [Example 3-65, 6-(3-Chloro-2-fluorobenzyl)-7-methylamino-1-(2-hydroxyethyl)-4-oxo-1,4-dihydroquinoline-3-carboxylic acid] | 15
CC(C)(C)n1cc(C(=O)O)c(=O)c2cc(Cc3cccc(Cl)c3F)ccc21 [Example 3-33, 1-tert-Butyl-6-(3-Chloro-2-fluorobenzyl)-4-oxo-1,4-dihydroquinoline-3-carboxylic acid] | 8.7
O=C(O)c1cn(CCO)c2ccc(Cc3cccc(F)c3F)cc2c1=O [Example 1-50, 6-(2,3-Difluorobenzyl)-1-(2-hydroxyethyl)-4-oxo-1,4-dihydroquinoline-3-carboxylic acid] | 110
O=C(O)c1cn(C(CO)CO)c2ccc(Cc3cccc(Cl)c3Cl)cc2c1=O [Example 3-10, 6-(2,3-Dichlorobenzyl)-1-[2-hydroxy-1-(hydroxymethyl)ethyl]-4-oxo-1,4-dihydroquinoline-3-carboxylic acid] | 18
O=C(O)CCn1cc(C(=O)O)c(=O)c2cc(Cc3cccc(Cl)c3Cl)ccc21 [Example 1-10, 1-(2-Carboxyethyl)-6-(2,3-dichlorobenzyl)-4-oxo-1,4-dihydroquinoline-3-carboxylic acid] | 72
O=C(O)c1cn(Cc2ccccc2)c2ccc(Cc3cccc(Cl)c3Cl)cc2c1=O [Example 1-15, 1-Benzyl-6-(2,3-dichlorobenzyl)-4-oxo-1,4-dihydroquinoline-3-carboxylic acid] | 230
COc1c(Cc2cccc(Cl)c2F)cc2c(=O)c(C(=O)O)cn(CCO)c2c1OC [Example 3-45, 6-(3-Chloro-2-fluorobenzyl)-7,8-dimethoxy-1-(2-hydroxyethyl)-4-oxo-1,4-dihydroquinoline-3-carboxylic acid] | 15
O=C(O)c1cn(CCO)c2c(OCC3CCCCC3)cc(Cc3cccc(Cl)c3F)cc2c1=O [Example 3-69, 6-(3-Chloro-2-fluorobenzyl)-8-cyclohexylmethoxy-1-(2-hydroxyethyl)-4-oxo-1,4-dihydroquinoline-3-carboxylic acid] | 4.3
CCOc1cc2c(cc1Cc1cccc(Cl)c1F)c(=O)c(C(=O)O)cn2CCO [Example 3-44, 6-(3-Chloro-2-fluorobenzyl)-7-ethoxy-1-(2-hydroxyethyl)-4-oxo-1,4-dihydroquinoline-3-carboxylic acid] | 9.6
O=C(O)c1cn(CCc2ccccc2)c2ccc(Cc3ccccc3Cl)cc2c1=O [Example 1-65, 6-(2-Chlorobenzyl)-4-oxo-1-phenethyl-1,4-dihydroquinoline-3-carboxylic acid] | 120
